Test results reported in paper PMC7946667 (Cancer Chemotherapy and Pharmacology, 2021).
Values joined by “and” are separate entries in the source; they are usually repeats but may differ in a detail not shown here. Identical values can stand only once. “Also recorded” adds a separate entry of the source. Like-named read-outs stand apart in the source and are kept apart here.

Experiments:
[1] = test system: CYP3A; test: Clinical DDI study: pharmacokinetics of midazolam (CYP3A probe substrate) and 1′-hydroxymidazolam with and without ceritinib; assay type: in vivo, human; conditions: for Metabolite-to-parent ratio: AUC0–144 h based, molecular weight corrected; for AUC(0-inf): read-out: AUC0-inf, adjusted geometric mean; for classification as CYP3A inhibitor: based on midazolam AUC increase, ceritinib 750 mg QD
Excerpt: This was a multicenter, open-label, single sequence, crossover phase I study (ClinicalTrials.gov identifier: NCT02422589) and was divided into two phases, DDI phase and post-DDI treatment phase (Fig. 1). Patients were recruited from 10 clinical centers located across 4 countries, namely Spain (n = 3), United States (n = 3), Italy (n = 3), and Denmark (n = 1).
To assess the pharmacokinetics of probe substrates, blood samples were obtained on Days 1 and 28 at pre-dose and at 0.25, 0.5, 1, 2, 3, 4, 6, 8, 10, 24, 48, 72, 96, 120, and 144 h post-dose. […] A blood sample for CYP2C9 genotyping was collected on Day 1 of the DDI phase from all participating patients. Patients were categorized as CYP2C9 poor, intermediate, or extensive metabolizers based on the genotype testing results. This assessment was of exploratory nature and was not used as inclusion/exclusion criteria in the study.
A linear mixed-effects model was fitted to the log-transformed primary PK parameters (Cmax, AUC0-144 h, and AUC0-inf) and included a fixed effect for treatment and a random effect for subject.

[2] = test system: CYP2C9; conditions: for AUC0-inf, adjusted geometric mean / Cmax, adjusted geometric mean: linear mixed effects model; for Tmax: median [min, max]; for AUC0–144 h / Cmax: patient plasma; for AUC0–144 h / Cmax / Metabolite-to-parent ratio: geometric mean (CV%); for Metabolite-to-parent ratio: AUC0–144 h based, molecular weight corrected; for classification as CYP2C9 inhibitor: based on S-warfarin AUC increase, ceritinib 750 mg QD
[3] = test system: CYP3A; conditions: PBPK, cited from earlier work
[4] = test system: advanced ALK-positive tumors; test: Antitumor activity (best overall response, ORR, DCR per RECIST 1.1, investigator assessment); assay type: in vivo, human
Procedure: (§1) Adverse events (AEs) were coded using the Medical Dictionary for Regulatory Activities version 20.1 and were graded using Common Terminology Criteria for Adverse Events version 4.03. All patients were followed up for AEs and serious AEs (SAEs) for at least 30 days following the last dose of study treatment at the end of treatment phase. Tumor evaluation was performed at screening visit within 28 days prior to study treatment (Day 1 of DDI phase) using contrast enhanced computed tomography (or magnetic resonance imaging). Assessments of tumor response were performed every two cycles (i.e., every 6 weeks) through Cycle 9. ORR and DOR by investigator assessment was reported per Response Evaluation Criteria in Solid Tumors (RECIST) 1.1.

[5] = test system: CYP2C8; conditions: cited from earlier work
[6] = test system: CYP3A4/5; conditions: cited from earlier work
[7] = test system: CYP2D6; conditions: cited from earlier work
[8] = test system: CYP1A2; conditions: cited from earlier work
[9] = test system: CYP2C9; conditions: cited from earlier work
[10] = Safety and tolerability (adverse events) of ceritinib 750 mg QD in patients
Procedure: as §1

[11] = test system: CYP2C19; conditions: cited from earlier work
[12] = test system: CYP3A; conditions: in vitro HLM studies; cited from earlier work
[13] = test system: CYP2A6; conditions: HLM, of more minor clinical relevance; cited from earlier work
[14] = test system: CYP2B6; conditions: cited from earlier work
[15] = cited from earlier work
[16] = midazolam 2.5 mg single oral dose + ceritinib 750 mg QD at steady state (Day 28), patient plasma, geometric mean (CV%)
[17] = midazolam 2.5 mg single oral dose alone (Day 1), patient plasma, geometric mean (CV%)
[18] = midazolam + ceritinib vs midazolam alone
[19] = treatment warfarin + ceritinib 750 mg QD for 3 weeks
[20] = warfarin 10 mg single oral dose + ceritinib 750 mg QD at steady state (Day 28)
[21] = warfarin 10 mg single oral dose alone (Day 1)
[22] = warfarin + ceritinib / warfarin alone
[23] = warfarin + ceritinib vs warfarin alone
[24] = midazolam 2.5 mg single oral dose + ceritinib 750 mg QD (Day 28), geometric mean (CV%)
[25] = midazolam 2.5 mg single oral dose alone (Day 1), geometric mean (CV%)
[26] = All Patients N=33, ceritinib 750 mg QD
[27] = NSCLC N=19, ceritinib 750 mg QD
[28] = Other tumors N=14, ceritinib 750 mg QD
[29] = HLM, read-out: IC50, reversible inhibition
[30] = HLM, read-out: Ki, reversible inhibition
[31] = HLM, of more minor clinical relevance
[32] = ceritinib concentrations up to 50 µM

## OCc1ncc2n1-c1ccc(Cl)cc1C(c1ccccc1F)=NC2 [1′-hydroxymidazolam]
[1]; midazolam 2.5 mg single oral dose + ceritinib 750 mg QD (Day 28), median [min, max]
  Tmax: 0.583 [0.250; 2.53] h
[1]; [16]
  AUC0–144 h: 12.1 (87.0) h*ng/mL
  Cmax: 1.90 (73.8) ng/mL
[1]; midazolam 2.5 mg single oral dose alone (Day 1), median [min, max]
  Tmax: 0.500 [0.217; 2.00] h
[1]; [17]
  AUC0–144 h: 14.7 (74.4) h*ng/mL
  Cmax: 5.41 (74.1) ng/mL
[1]; midazolam + ceritinib 750 mg QD (Day 28), geometric mean (CV%)
  Metabolite-to-parent ratio: 2.9% and 2.89 (66.7) %
[1]; [18]
  decrease in the metabolite-to-parent AUC ratio: 85%
[1]; midazolam alone (Day 1), geometric mean (CV%)
  Metabolite-to-parent ratio: 19.3% and 19.3 (66.3) %

## CC(=O)C[C@@H](c1ccccc1)c1c(O)c2ccc(O)cc2oc1=O [7-Hydroxy-S-warfarin, 7-hydroxy-S-warfarin]
[2]; [19]
  AUC0-inf, adjusted geometric mean: 3330 ng·h/mL
  Cmax, adjusted geometric mean: 34.8 ng/mL
[2]; treatment warfarin alone
  AUC0-inf, adjusted geometric mean: 3090 ng·h/mL
  Cmax, adjusted geometric mean: 39.1 ng/mL
[2]; warfarin 10 mg single oral dose + ceritinib 750 mg QD (Day 28)
  Tmax: 47.2 [8.50; 73.7] h
[2]; [20]
  AUC0–144 h: 3320 (64.1) h*ng/mL
  Cmax: 34.9 (61.6) ng/mL
[2]; [21]
  Tmax: 24.2 [2.97; 49.9] h
  AUC0–144 h: 2910 (61.8) h*ng/mL
  Cmax: 39.7 (60.3) ng/mL
[2]; warfarin + ceritinib 750 mg QD (Day 28)
  Metabolite-to-parent ratio: 11.7 (58.2) %
[2]; warfarin + ceritinib 750 mg QD (Day 28), listed as 7-hydroxy-S-warfarin
  Metabolite-to-parent ratio: 11.7%
[2]; [22]
  AUC0-inf geometric mean ratio (90% CI): 1.08
  Cmax geometric mean ratio (90% CI): 0.890
[2]; [23]
  decrease in the metabolite-to-parent AUC ratio: 18%
[2]; warfarin alone (Day 1)
  Metabolite-to-parent ratio: 14.3 (66.6) %
[2]; warfarin alone (Day 1), listed as 7-hydroxy-S-warfarin
  Metabolite-to-parent ratio: 14.3%

## Cc1ncc2n1-c1ccc(Cl)cc1C(c1ccccc1F)=NC2 [Midazolam, midazolam]
[1]; human, plasma, oral
  Tmax: ~1 h
[1]; human, plasma, oral, treatment midazolam + ceritinib 750 mg QD for 3 weeks, linear mixed effects model
  AUC(0-inf): 393 ng·h/mL
[1]; human, plasma, oral, treatment midazolam + ceritinib 750 mg QD for 3 weeks, linear mixed effects model, read-out: Cmax, adjusted geometric mean
  Cmax: 42 ng/mL
[1]; human, plasma, oral, treatment midazolam alone, linear mixed effects model
  AUC(0-inf): 72.5 ng·h/mL
[1]; human, plasma, oral, treatment midazolam alone, linear mixed effects model, read-out: Cmax, adjusted geometric mean
  Cmax: 23 ng/mL
[1]; human, plasma, po, 2.5 mg, midazolam 2.5 mg single oral dose alone (Day 1), geometric mean (CV%)
  half-life: 6 h
[1]; human, plasma, po, 2.5 mg, midazolam 2.5 mg single oral dose alone (Day 1), patient plasma, geometric mean (CV%), read-out: Cmax
  Cmax: 23 ng/mL
[1]; human, plasma, po, 2.5 mg, read-out: AUC0–144 h
  AUC(0-t): 70.2 ng·h/mL
[1]; human, plasma, po, 2.5 mg, read-out: Tmax
  Tmax: 0.5 h
[1]; human, plasma, po, midazolam 2.5 mg single oral dose + ceritinib 750 mg QD (Day 28), geometric mean (CV%)
  half-life: 15 h
[1]; human, plasma, po, midazolam 2.5 mg single oral dose + ceritinib 750 mg QD at steady state (Day 28), patient plasma, geometric mean (CV%), read-out: Cmax
  Cmax: 42 ng/mL
[1]; [24]
  CL/F: 6.36 L/h
  T1/2: 15.4 (37.4) h
[1]; [25]
  CL/F: 34.5 L/h
  T1/2: 6.05 (47.8) h
[1]; [18]
  decrease in apparent clearance (CL/F) of midazolam: approximately 80%
[3]; ceritinib dosed to steady-state + single oral dose midazolam 5 mg
  predicted increase of midazolam AUC: 6 fold
[3]; single dose ceritinib 750 mg + single oral dose midazolam 5 mg
  predicted increase of midazolam AUC: 30%

## CC(=O)C[C@H](c1ccccc1)c1c(O)c2ccccc2oc1=O [R-warfarin]
[2]; [19]
  AUC0-inf, adjusted geometric mean: 38900 ng·h/mL
  Cmax, adjusted geometric mean: 616 ng/mL
[2]; treatment warfarin alone
  AUC0-inf, adjusted geometric mean: 36300 ng·h/mL
  Cmax, adjusted geometric mean: 560 ng/mL
[2]; [20]
  AUC0–144 h: 38,500 (34.9) h*ng/mL
  Cmax: 616 (23.6) ng/mL
[2]; [21]
  AUC0–144 h: 30,600 (39.0) h*ng/mL
  Cmax: 560 (34.2) ng/mL
[2]; [23]
  impact of ceritinib on R-warfarin pharmacokinetics: did not affect the pharmacokinetics of R-warfarin to a clinically significant extent; also recorded: negligible

## CC(=O)C[C@@H](c1ccccc1)c1c(O)c2ccccc2oc1=O [S-warfarin]
[2]; co-administered with ceritinib vs warfarin alone
  reduction of S-warfarin CL/F: approximately 30%
[2]; [19]
  AUC0-inf, adjusted geometric mean: 32800 ng·h/mL
  Cmax, adjusted geometric mean: 598 ng/mL
[2]; treatment warfarin alone
  AUC0-inf, adjusted geometric mean: 21200 ng·h/mL
  Cmax, adjusted geometric mean: 569 ng/mL
[2]; [20]
  AUC0–144 h: 28,400 (36.0) h*ng/mL
  Cmax: 599 (27.5) ng/mL
[2]; [21]
  AUC0–144 h: 18,200 (46.6) h*ng/mL
  Cmax: 569 (34.9) ng/mL

## Cc1cc(Nc2ncc(Cl)c(Nc3ccccc3S(=O)(=O)C(C)C)n2)c(OC(C)C)cc1C1CCNCC1 [ceritinib]
[4]; 19 patients with NSCLC, 95% CI: 20.3, 66.5
  ORR: 42.1%
[4]; 19 patients with NSCLC, 95% CI: 38.4, 83.7
  DCR: 63.2%
[4]; [26]
  Best overall response Unknown: 6 (18.2) n (%)
  Complete response (CR): 1 (3.0) n (%)
  Non-CR/Non-PD: 2 (6.1) n (%)
  Partial response (PR): 8 (24.2) n (%)
  Progressive disease (PD): 12 (36.4) n (%)
[4]; [27]
  Best overall response Unknown: 4 (21.1) n (%)
  Complete response (CR): 1 (5.3) n (%)
  Non-CR/Non-PD: 2 (10.5) n (%)
  Partial response (PR): 7 (36.8) n (%)
  Progressive disease (PD): 3 (15.8) n (%)
[4]; [28]
  Best overall response Unknown: 2 (14.3) n (%)
  Complete response (CR): 0 n (%)
  Non-CR/Non-PD: 0 n (%)
  Partial response (PR): 1 (7.1) n (%)
  Progressive disease (PD): 9 (64.3) n (%)
[4]; overall, all 33 patients, 95% CI: 13.3, 45.5
  ORR: 27.3%
[4]; overall, all 33 patients, 95% CI: 28.1, 63.6
  DCR: 45.5%
[5]
  inhibition at clinically relevant concentrations: unlikely to inhibit
[6]; [29]
  IC50: 200 nM
[6]; [30]
  Ki: 160 nM
[6]; pooled HLMs
  mode of inhibition of metabolism of midazolam (CYP3A substrate): competitively inhibited
[6]; time-dependent inhibition of CYP3A, HLM
  inhibitor concentration associated with 50% maximal inactivation rate [Ki]: 1470 nM
[7]; [31]
  reversible inhibition: reversibly inhibits
[7]; [32]
  time-dependent inhibition: no apparent time-dependent inhibition
[7]
  inhibition at clinically relevant concentrations: unlikely to inhibit
[2]
  classification as CYP2C9 inhibitor: weak inhibitor of CYP2C9
[2]; listed as Ceritinib
  classification as CYP2C9 inhibitor: weak CYP2C9 inhibitor
[8]; [32]
  time-dependent inhibition: no apparent time-dependent inhibition
[8]
  inhibition at clinically relevant concentrations: unlikely to inhibit
[9]; [29]
  IC50: 2000 nM
[9]; [30]
  Ki: 240 nM
[9]; [32]
  time-dependent inhibition: no apparent time-dependent inhibition
[9]; pooled HLMs
  mode of inhibition of metabolism of diclofenac (CYP2C9 substrate): competitively inhibited
[10]; all patients N=33
  deaths suspected to be treatment related: None
[10]; all patients N=33, cause study disease
  patients who died during the study: 8 patients
[10]; within 30 days of last dose of ceritinib
  deaths during the on-treatment period: 4 deaths
[11]
  inhibition at clinically relevant concentrations: unlikely to inhibit
[1]
  classification as CYP3A inhibitor: strong inhibitor of CYP3A
[1]; listed as Ceritinib
  classification as CYP3A inhibitor: strong CYP3A inhibitor
[12]
  share of hepatic oxidative metabolism via CYP3A: > 90%
[13]
  reversible inhibition: reversibly inhibits
[14]; [31]
  reversible inhibition: reversibly inhibits
[14]
  inhibition at clinically relevant concentrations: unlikely to inhibit
[15]; observed in earlier clinical trials
  Cmax at steady-state: 1010 ng/mL
[15]; observed in earlier clinical trials, read-out: Cmax at steady-state
  Cmax: 1800 nM
[15]; repeat daily dosing
  time to steady-state: 2–3 weeks
